Columns and labels:
LNCaP tumor bearing mice [1] = experiment: SPECT/CT scanning, exposure of 177Lu labeled compounds in tumor and tissues; type: in vivo
Procedure: The ^177Lu labeled precursor compound was diluted to 7.4 MBq (200 μCi)/200 […] with normal saline, and each tumor bearing mouse was given about 7.4 MBq (200 μCi) of the drug via tail vein injection. SPECT/CT scanning was performed on the mice at 1, 4, 8, 24, 48 and 72 h after administration, respectively, with the mice under continuous anesthesia with isoflurane, lying prone on an examination bed. The acquisition method was static imaging 12 min SPECT, and medium resolution whole-body imaging CT. During the process, according to the recording table, the animal body weight, injection dose, injection time and residual dose were recorded, and the time of measuring the injection dose and the time of measuring the residual dose were recorded respectively. After scanning, the data were reconstructed, PMOD software was used to analyze and delineate each organ tissue and quantify the drug distribution therein, the images and data were saved, and the data were further subjected to statistical analysis.
Drug exposure in each tissue was calculated (Table 1, where the values involving PSMA-D were the predicted values).

LNCaP tumor bearing mice [2] = experiment: Inhibition on tumor; type: in vivo; conditions: 14.8 MBq (400 μCi)
Procedure: PSMA positive LNCaP cells were proliferated and harvested, and then inoculated subcutaneously in mice at an amount of 1×10^7/mouse. When the tumors grew to 200-400 mm^3, the mice were randomly grouped according to the tumor size (3-4 mice in each group), and were given the compound (400 μCi) of the present invention labeled with […] or the positive control compound PSMA-617 labeled with ^177Lu via tail vein injection, respectively. The tumor sizes and body weights of the mice were measured every 3 days after administration, and the death of the mice was recorded. The control group and the administration group were compared to understand the inhibition on LNCaP tumors by different drugs. On day 6 after administration, SPECT/CT scanning was performed on the administration group to understand the exposure of different drugs at the tumor sites during the treatment.

[3] = labeled with 177Lu, about 7.4 MBq (200 μCi) tail vein, scans 1-72 h

| SMILES | Exposure in Bladder (LNCaP tumor bearing mice [1]; [3]) | Exposure in Bone (LNCaP tumor bearing mice [1]; [3]) | Exposure in Heart (LNCaP tumor bearing mice [1]; [3]) | Exposure in Kidney (LNCaP tumor bearing mice [1]; [3]) | Exposure in Liver (LNCaP tumor bearing mice [1]; [3]) | Exposure in Lung (LNCaP tumor bearing mice [1]; [3]) | Exposure in Muscle (LNCaP tumor bearing mice [1]; [3]) | Exposure in Spleen (LNCaP tumor bearing mice [1]; [3]) | Exposure in Tumor (LNCaP tumor bearing mice [1]; [3]) | other results |
| --- | --- | --- | --- | --- | --- | --- | --- | --- | --- | --- |
| O=C(O)CC[C@H](NC(=O)N[C@@H](CCCCNC(=O)[C@H](Cc1ccc2ccccc2c1)NC(=O)[C@H]1CC[C@H](CNC(=O)CN2CCN(CC(=O)O)CCN(CC(=O)O)CCN(CC(=O)O)CC2)CC1)C(=O)O)C(=O)O [PSMA-617, reference compound] | 553.2 h*ID %/g | 9.939 h*ID %/g | 23.31 h*ID %/g | 77.45 h*ID %/g | 48.92 h*ID %/g | 40.93 h*ID %/g | 36.36 h*ID %/g | 54.27 h*ID %/g | 346.9 h*ID %/g | – |
| COc1ccc(CCCC(=O)NC(CCCNC(=N)N)C(=O)N[C@@H](CCCCNC(=O)CN2CCN(CC(=O)O)CCN(CC(=O)O)CCN(CC(=O)O)CC2)C(=O)NCC2CCC(C(=O)N[C@@H](Cc3ccc4ccccc4c3)C(=O)NCCCC[C@H](NC(=O)N[C@@H](CCC(=O)O)C(=O)O)C(=O)O)CC2)cc1 (stereo partly drawn) [PSMA-A] | 310.2 h*ID %/g | 40.07 h*ID %/g | 50.46 h*ID %/g | 206 h*ID %/g | 101.6 h*ID %/g | 35.49 h*ID %/g | 17.65 h*ID %/g | 42.25 h*ID %/g | 235 h*ID %/g | – |
| COc1ccc(CCCC(=O)NC(Cc2c[nH]cn2)C(=O)N[C@@H](CCCCNC(=O)CN2CCN(CC(=O)O)CCN(CC(=O)O)CCN(CC(=O)O)CC2)C(=O)NCC2CCC(C(=O)N[C@@H](Cc3ccc4ccccc4c3)C(=O)NCCCC[C@H](NC(=O)N[C@@H](CCC(=O)O)C(=O)O)C(=O)O)CC2)cc1 (stereo partly drawn) [PSMA-B] | 157.3 h*ID %/g | 20.62 h*ID %/g | 54.22 h*ID %/g | 330.5 h*ID %/g | 53.28 h*ID %/g | 50.04 h*ID %/g | 32.14 h*ID %/g | 31.81 h*ID %/g | 370 h*ID %/g | – |
| COc1ccc(CCCC(=O)NC(CCCCN)C(=O)N[C@@H](CCCCNC(=O)CN2CCN(CC(=O)O)CCN(CC(=O)O)CCN(CC(=O)O)CC2)C(=O)NCC2CCC(C(=O)N[C@@H](Cc3ccc4ccccc4c3)C(=O)NCCCC[C@H](NC(=O)N[C@@H](CCC(=O)O)C(=O)O)C(=O)O)CC2)cc1 (stereo partly drawn) [PSMA-C] | 100.8 h*ID %/g | 32.01 h*ID %/g | 38.58 h*ID %/g | 178.7 h*ID %/g | 49.61 h*ID %/g | 31.55 h*ID %/g | 17.82 h*ID %/g | 29.2 h*ID %/g | 131.9 h*ID %/g | – |
| COc1ccc(CCCC(=O)NC(CO)C(=O)N[C@@H](CCCCNC(=O)CN2CCN(CC(=O)O)CCN(CC(=O)O)CCN(CC(=O)O)CC2)C(=O)NCC2CCC(C(=O)N[C@@H](Cc3ccc4ccccc4c3)C(=O)NCCCC[C@H](NC(=O)N[C@@H](CCC(=O)O)C(=O)O)C(=O)O)CC2)cc1 (stereo partly drawn) [PSMA-D] | – | – | – | – | – | – | – | – | – | Exposure in Bladder (LNCaP tumor bearing mice [1]; predicted values (PSMA-D)): 200-800 h*ID %/g; Exposure in Bone (LNCaP tumor bearing mice [1]; predicted values (PSMA-D)): 10-80 h*ID %/g; Exposure in Heart (LNCaP tumor bearing mice [1]; predicted values (PSMA-D)): 20-100 h*ID %/g; Exposure in Kidney (LNCaP tumor bearing mice [1]; predicted values (PSMA-D)): 50-500 h*ID %/g; Exposure in Liver (LNCaP tumor bearing mice [1]; predicted values (PSMA-D)): 50-200 h*ID %/g; Exposure in Lung (LNCaP tumor bearing mice [1]; predicted values (PSMA-D)): 20-200 h*ID %/g; Exposure in Muscle (LNCaP tumor bearing mice [1]; predicted values (PSMA-D)): 20-100 h*ID %/g; Exposure in Spleen (LNCaP tumor bearing mice [1]; predicted values (PSMA-D)): 20-100 h*ID %/g; Exposure in Tumor (LNCaP tumor bearing mice [1]; predicted values (PSMA-D)): 200-1000 h*ID %/g |
| COc1ccc(CCCC(=O)NC(CCC(N)=O)C(=O)N[C@@H](CCCCNC(=O)CN2CCN(CC(=O)O)CCN(CC(=O)O)CCN(CC(=O)O)CC2)C(=O)NCC2CCC(C(=O)N[C@@H](Cc3ccc4ccccc4c3)C(=O)NCCCC[C@H](NC(=O)N[C@@H](CCC(=O)O)C(=O)O)C(=O)O)CC2)cc1 (stereo partly drawn) [PSMA-E] | 710.2 h*ID %/g | 51.75 h*ID %/g | 19.52 h*ID %/g | 239 h*ID %/g | 31.19 h*ID %/g | 14.87 h*ID %/g | 25.53 h*ID %/g | 46.74 h*ID %/g | 473.6 h*ID %/g | – |
| O=C(O)CCCCCCCCCCCCCCC(=O)N[C@@H](CCCCNC(=O)CN1CCN(CC(=O)O)CCN(CC(=O)O)CCN(CC(=O)O)CC1)C(=O)NCC1CCC(C(=O)N[C@@H](Cc2ccc3ccccc3c2)C(=O)NCCCC[C@H](NC(=O)N[C@@H](CCC(=O)O)C(=O)O)C(=O)O)CC1 (stereo partly drawn) [PSMA-F] | 633.7 h*ID %/g | 94.85 h*ID %/g | 581.6 h*ID %/g | 669.2 h*ID %/g | 263.1 h*ID %/g | 348.3 h*ID %/g | 253.3 h*ID %/g | 55.76 h*ID %/g | 1394 h*ID %/g | – |
| O=C(O)CCCCCCCCCCCCC(=O)N[C@@H](CCCCNC(=O)CN1CCN(CC(=O)O)CCN(CC(=O)O)CCN(CC(=O)O)CC1)C(=O)NCC1CCC(C(=O)N[C@@H](Cc2ccc3ccccc3c2)C(=O)NCCCC[C@H](NC(=O)N[C@@H](CCC(=O)O)C(=O)O)C(=O)O)CC1 (stereo partly drawn) [PSMA-G] | 935.9 h*ID %/g | 54.86 h*ID %/g | 123.9 h*ID %/g | 1589 h*ID %/g | 193.2 h*ID %/g | 86.51 h*ID %/g | 71.89 h*ID %/g | 83.39 h*ID %/g | 226.4 h*ID %/g | – |
| O=C(O)CCCCCCCCCCC(=O)N[C@@H](CCCCNC(=O)CN1CCN(CC(=O)O)CCN(CC(=O)O)CCN(CC(=O)O)CC1)C(=O)NCC1CCC(C(=O)N[C@@H](Cc2ccc3ccccc3c2)C(=O)NCCCC[C@H](NC(=O)N[C@@H](CCC(=O)O)C(=O)O)C(=O)O)CC1 (stereo partly drawn) [PSMA-H] | 1135 h*ID %/g | 22.69 h*ID %/g | 63.71 h*ID %/g | 575 h*ID %/g | 72.88 h*ID %/g | 56.76 h*ID %/g | 35.74 h*ID %/g | 62.06 h*ID %/g | 441.2 h*ID %/g | – |
| COc1ccc(C(=O)N[C@@H](CCCCNC(=O)CN2CCN(CC(=O)O)CCN(CC(=O)O)CCN(CC(=O)O)CC2)C(=O)NCC2CCC(C(=O)N[C@@H](Cc3ccc4ccccc4c3)C(=O)NCCCC[C@H](NC(=O)N[C@@H](CCC(=O)O)C(=O)O)C(=O)O)CC2)cc1 (stereo partly drawn) [PSMA-I] | 831.9 h*ID %/g | 50.24 h*ID %/g | 23.61 h*ID %/g | 776.8 h*ID %/g | 55.24 h*ID %/g | 31.12 h*ID %/g | 62.66 h*ID %/g | 65.02 h*ID %/g | 95.56 h*ID %/g | – |
| COc1ccc(C(=O)NCCN2CCN(C(=O)CCC(=O)N[C@@H](CCCCNC(=O)CN3CCN(CC(=O)O)CCN(CC(=O)O)CCN(CC(=O)O)CC3)C(=O)NCC3CCC(C(=O)N[C@@H](Cc4ccc5ccccc5c4)C(=O)NCCCC[C@H](NC(=O)N[C@@H](CCC(=O)O)C(=O)O)C(=O)O)CC3)CC2)cc1 (stereo partly drawn) [PSMA-K] | 585.9 h*ID %/g | 32.71 h*ID %/g | 54.52 h*ID %/g | 79.78 h*ID %/g | 314.2 h*ID %/g | 278.5 h*ID %/g | 26.77 h*ID %/g | 83.81 h*ID %/g | 281 h*ID %/g | – |
| COc1ccc(C(=O)NCCN2CCN(C(=O)CCC(=O)N[C@@H](CCCCNC(=O)CN3CCN(CC(=O)O)CCN(CC(=O)O)CCN(CC(=O)O)CC3)C(=O)N3CCc4cc(C(=O)N[C@@H](Cc5ccc6ccccc6c5)C(=O)NCCCC[C@H](NC(=O)N[C@@H](CCC(=O)O)C(=O)O)C(=O)O)ccc4C3)CC2)cc1 [PSMA-L] | 499.3 h*ID %/g | 15.5 h*ID %/g | 40.58 h*ID %/g | 148.8 h*ID %/g | 62.47 h*ID %/g | 51.83 h*ID %/g | 37.2 h*ID %/g | 34.43 h*ID %/g | 1350 h*ID %/g | drug exposure in the LNCaP tumor, in words (LNCaP tumor bearing mice [1]; in contrast to PSMA-617): greatly increase the drug exposure in the LNCaP tumor; exposure in the normal tissues, in words (LNCaP tumor bearing mice [1]; in contrast to PSMA-617): kept at a lower level |
| O=C([O-])CN1CCN(CC(=O)[O-])CCN(CC(=O)NCC2CCC(C(=O)N[C@@H](Cc3ccc4ccccc4c3)C(=O)NCCCC[C@H](NC(=O)N[C@@H](CCC(=O)O)C(=O)O)C(=O)O)CC2)CCN(CC(=O)[O-])CC1.[177Lu+3] (stereo partly drawn) [^177Lu-PSMA-617] | – | – | – | – | – | – | – | – | – | body weight of the animals during the treatment (LNCaP tumor bearing mice [2]): no significant difference |
